# Laboratory results as given in patent US20040029910A1, “Protoberberine derivatives which inhibit activity of the mitogen-activated protein kinase” (priority 2000, published 2004).
# How the values were obtained:
# [1] = system: knock-out mutant of wis4 (ED1292); experiment: Growth (cell number) of wis4 knock-out mutant; assay type: cell-based, Schizosaccharomyces pombe; conditions: Table 8, wis4 knock-out
# Procedure: (§1) To investigate the effect of protoberberine derivatives on the growth of cells, the cells of each strain were cultured in rich medium YE^AU to exponential phase(5×10^7 cells/mL). These cells were transferred to YE^AU medium and cultured for 12 hours. Then cell number was measured every 3 hours.
# (§2) The knock-out mutant of win1 and wis4 was cultured and treated with 13-(4-t-butylbenzyl)berberine chloride, 13-(4-(t-butyldimethylsilyloxy)benzyl)berberine chloride or 2,3,9,10-tetrapropoxyprotoberberine iodide of the compounds 13-benzylberberine iodide, 13-(4-chloro benzyl)berberine iodide, 13-(3-bromobenzyl)berberine iodide, 13-(2,3-dichlorobenzyl)berberine chloride, 13-(2-chloro-6-fluorobenzyl)berberine chloride, 13-(4-fluoro-2-trifluoromethylbenzyl)berberine chloride, 13-(2,3,4,5,6-pentafluorobenzyl)berberine chloride, 13-(2,3,5,6-tetra fluoro-4-trifluoromethylbenzyl)berberine chloride, 13-(4-methylbenzyl)berberine chloride, 13-(2,4-dimethylbenzyl) berberine chloride, 13-(4-methyl-3-nitrobenzyl)berberine chloride, 13-(3-trifluoromethylbenzyl)berberine chloride, 13-(4-methoxybenzyl)berberine chloride, 13-(4-trifluoro methoxybenzyl)berberine chloride, 13-(4-methoxycarbonyl benzyl)berberine chloride, 13-(4-t-butylbenzyl)berberine chloride, 13-(4-1-propylbenzyl) berberine chloride, 13-(4-(t-butyldimethylsilyloxy)benzyl) berberine chloride, 13-(4-t-butylbenzyl)palmatine iodide, 13-(4-(t-butyldimethyl silyloxy)benzyl)palmatine chloride and 2,3,9,10-tetra propoxyprotoberberine iodide.
# [2] = system: knock-out mutant of byr2 in Ras-Byr2 pathway (SPSU); experiment: Growth (cell number) of byr2 knock-out mutant; assay type: cell-based, Schizosaccharomyces pombe
# Procedure: as §1
# [3] = system: knock-out mutant of wis1 (JM544); experiment: Growth (cell number) of wis1 knock-out mutant; assay type: cell-based, Schizosaccharomyces pombe; conditions: for inhibition of the activity of Wis1 kinase, concluded from effects on knock-out mutants: conclusion from growth of knock-out mutants; for inhibition of the knock-out mutant of wis1 (in words): table 5
# Procedure: To investigate the effect of protoberberine derivatives on the growth of cells, the cells of each strain were cultured in rich medium YE^AU to exponential phase(5×10^7 cells/mL). […]
# [4] = system: knock-out mutant of win1 (ED1388); experiment: Growth (cell number) of win1 knock-out mutant; assay type: cell-based, Schizosaccharomyces pombe; conditions: Table 7, win1 knock-out
# Procedure: as §1, §2
# [5] = system: KGY246 cells, wild type Saccharomyces pombe; experiment: Minimum inhibitory concentration (MIC) on Schizosaccharomyces pombe; assay type: cell-based; conditions: YE^AU medium; minimal concentration at which cell number stayed constant; 10% ethanol as solvent
# Procedure: Measurement of Minimum Inhibitory Concentration(MIC) of Protoberberine Derivatives on Schizosaccharomyces pombe
# KGY246 cells, wild type Saccharomyces pombe, were cultured in rich media YE^AU (yeast extract, peptone, malt extract, dextrose, agar: pH 6.2)containing 0.75 mg/L adenine and uracil to exponential phase. To determine minimum inhibitory concentration of each protoproberberine derivative, cells in exponential phase were transferred to YE^AU medium containing variable concentrations of protoberberine derivatives and cell number was measured every 3 hour. Thereafter, the minimal concentration on which cell number was maintained constantly was determined as minimum inhibitory concentration. The minimum inhibitory concentrations of protoberberine derivatives 13-(4-t-butylbenzyl)berberine chloride, 13-(4-(t-butyldimetylsilyloxy)benzyl)berberine chloride and 2,3,9,10-tetrapropoxyprotoberberine iodide of the present invention were 20 ug/mL, 7 ug/mL and 20 ug/mL respectively. To minimize inhibition by solvent itself, 10% ethanol was used as a solvent of protoberberine derivatives. The processes of cell culture and measurement of cell number described above were repeated using 13-benzylberberine iodide, 13-(4-chlorobenzyl)berberine iodide, 13-(3-bromobenzyl)berberine iodide, 13-(2,3-dichlorobenzyl) berberine chloride, 13-(2-chloro-6-fluorobenzyl)berberine chloride, 13-(4-fluoro-2-trifluoromethylbenzyl)berberine chloride, 13-(2,3,4,5,6-pentafluorobenzyl)berberine chloride, 13-(2,3,5,6-tetrafluoro-4-trifluoromethylbenzyl) berberine chloride, 13-(4-methylbenzyl)berberine chloride, 13-(2,4-dimethylbenzyl)berberine chloride, 13-(4-methyl-3-nitrobenzyl)berberine chloride, 13-(3-trifluoromethyl benzyl)berberine chloride, 13-(4-methoxybenzyl)berberine chloride, 13-(4-trifluoromethoxybenzyl)berberine chloride, 13-(4-methoxycarbonylbenzyl)berberine chloride, 13-(4-i-propylbenzyl)berberine chloride. These compounds also had the minimum concentration of inhibition at the concentration of 18-22 ug/mL.
# [6] = system: knock-out mutant of spc1 (KS1366); experiment: Growth (cell number) of spc1 knock-out mutant; assay type: cell-based, Schizosaccharomyces pombe; conditions: for inhibition of the knock-out mutant of spc1 (in words): table 6
# Procedure: To investigate the effect of protoberberine derivatives on the growth of cells, the cells of each strain were cultured in rich medium YE^AU to exponential phase(5×10^7 cells/mL). […] Then cell number was measured every 3 hours.
# [7] = system: knock-out mutant of spm1 in Mhk1-Spm1 pathway (TZs69); experiment: Growth (cell number) of spm1 knock-out mutant; assay type: cell-based, Schizosaccharomyces pombe
# Procedure: as §1
# [8] = Table 3, byr2 knock-out, time 12, miconazole 3 ug/mL
# [9] = Table 3, byr2 knock-out, time 15, miconazole 3 ug/mL
# [10] = Table 3, byr2 knock-out, time 18, miconazole 3 ug/mL
# [11] = Table 3, byr2 knock-out, time 21, miconazole 3 ug/mL
# [12] = Table 3, byr2 knock-out, time 24, miconazole 3 ug/mL
# [13] = Table 5, wis1 knock-out, time 12, miconazole 3 ug/mL
# [14] = Table 5, wis1 knock-out, time 15, miconazole 3 ug/mL
# [15] = Table 5, wis1 knock-out, time 18, miconazole 3 ug/mL
# [16] = Table 5, wis1 knock-out, time 21, miconazole 3 ug/mL
# [17] = Table 5, wis1 knock-out, time 24, miconazole 3 ug/mL
# [18] = Table 6, spc1 knock-out, time 15, miconazole 3 ug/mL
# [19] = Table 6, spc1 knock-out, time 18, miconazole 3 ug/mL
# [20] = Table 6, spc1 knock-out, time 21, miconazole 3 ug/mL
# [21] = Table 6, spc1 knock-out, time 24, miconazole 3 ug/mL
# [22] = Table 4, spm1 knock-out, time 12, miconazole 3 ug/mL
# [23] = Table 4, spm1 knock-out, time 15, miconazole 3 ug/mL
# [24] = Table 4, spm1 knock-out, time 18, miconazole 3 ug/mL
# [25] = Table 4, spm1 knock-out, time 21, miconazole 3 ug/mL
# [26] = Table 4, spm1 knock-out, time 24, miconazole 3 ug/mL
Compound,cell number ([1]; time 13),cell number ([1]; time 16),cell number ([1]; time 19),cell number ([1]; time 22),cell number ([1]; time 25),"cell number [2, 8]","cell number [2, 9]","cell number [2, 10]","cell number [2, 11]","cell number [2, 12]","cell number [3, 13]","inhibition of the activity of Wis1 kinase, concluded from effects on knock-out mutants [3]",inhibition of the knock-out mutant of wis1 (in words) [3],cell number ([4]; time 13),cell number ([4]; time 16),cell number ([4]; time 19),cell number ([4]; time 22),cell number ([4]; time 25),minimum inhibitory concentration [5],inhibition of the knock-out mutant of spc1 (in words) [6],also measured
COc1ccc2c(Cc3ccc(C(C)(C)C)cc3)c3[n+](cc2c1OC)CCc1cc2c(cc1-3)OCO2.[Cl-] [13-(4-t-butylbenzyl)berberine chloride],24,45,36,23,19,156,150,147,136,128,154,inhibit,not inhibited,28,26,17,37,13,20 µg/mL,partially inhibited,"cell number [3, 14]: 319; cell number [3, 15]: 538; cell number [3, 16]: 1265; cell number [3, 17]: 1788; cell number [6, 18]: 299; cell number [6, 19]: 488; cell number [6, 20]: 874; cell number [6, 21]: 1083; cell number [7, 22]: 89; cell number [7, 23]: 113; cell number [7, 24]: 131; cell number [7, 25]: 118; cell number [7, 26]: 125"
"CCCOc1cc2c(cc1OCCC)-c1cc3ccc(OCCC)c(OCCC)c3c[n+]1CC2.[I-] [2,3,9,10-tetrapropoxyprotoberberine iodide]",96,113,265,645,1250,220,207,185,167,155,164,inhibit,not inhibited,102,210,423,750,1575,20 µg/mL,completely inhibited,"cell number [3, 14]: 325; cell number [3, 15]: 502; cell number [3, 16]: 1041; cell number [3, 17]: 1574; cell number ([6]; Table 6, spc1 knock-out, time 12, miconazole 3 ug/mL): 201; cell number [6, 18]: 382; cell number [6, 19]: 676; cell number [6, 20]: 1232; cell number [6, 21]: 1634; inhibition of the activity of Spc1 kinase, concluded from effects on knock-out mutants ([6]; conclusion from growth of knock-out mutants): inhibit; cell number [7, 22]: 117; cell number [7, 23]: 4; cell number [7, 24]: 7; cell number [7, 25]: 165; cell number [7, 26]: 228"
COc1ccc2c(Cc3ccc(O[Si](C)(C)C(C)(C)C)cc3)c3[n+](cc2c1OC)CCc1cc2c(cc1-3)OCO2.[Cl-] [13-(4-(t-butyldimethylsilyloxy)benzyl)berberine chloride],37,52,25,36,23,,,,,,,inhibit,not inhibited,31,16,16,26,33,7 µg/mL,not inhibited at all,"cell number ([2]; Table 2, byr2 knock-out, time 14): 34; cell number ([2]; Table 2, byr2 knock-out, time 17): 72; cell number ([2]; Table 2, byr2 knock-out, time 20): 156; cell number ([2]; Table 2, byr2 knock-out, time 23): 292; cell number ([3]; Table 2, wis1 knock-out, time 14): 257; cell number ([3]; Table 2, wis1 knock-out, time 17): 665; cell number ([3]; Table 2, wis1 knock-out, time 20): 1355; cell number ([3]; Table 2, wis1 knock-out, time 23): 3100; cell number ([6]; Table 2, spc1 knock-out, time 14): 57; cell number ([6]; Table 2, spc1 knock-out, time 17): 90; cell number ([6]; Table 2, spc1 knock-out, time 20): 173; cell number ([6]; Table 2, spc1 knock-out, time 23): 210; cell number ([7]; Table 2, Spm1 knock-out, time 14): 55; cell number ([7]; Table 2, Spm1 knock-out, time 17): 94; cell number ([7]; Table 2, Spm1 knock-out, time 20): 266; cell number ([7]; Table 2, Spm1 knock-out, time 23): 450"
